The conditions of series [1]: patients with type 2 diabetes mellitus and high cardiovascular risk; cited from earlier work.
The nature of series [2]: blood pressure, heart rate and sympathetic activation under empagliflozin treatment. The series is classed as in vivo. Particulars: treatment with empagliflozin. An excerpt: It may be assumed that altered glucose and sodium gradients within the kidney may generate a sympathoinhibitory afferent renal nerve signal. The lack of sympathetic activation may contribute to a beneficial cardiovascular and renal profile of empagliflozin (cardiorenal axis). Based on clinical and non-clinical studies including mechanistic considerations, such as the effect of empagliflozin on human autonomic cardiovascular regulation, the use of empagliflozin in the treatment, prevention or slowing the progression of certain diseases and conditions or reducing the risk thereof, in particular chronic kidney disease and cardiovascular death in certain patients, is described hereinbefore and hereinafter.

The conditions of series [3]: human, in vivo; cited from earlier work.

Here are results for one compound from patent US12263153B2, “Pharmaceutical composition, methods for treating and uses thereof” (Boehringer Ingelheim International GmbH, priority 2016, dated 2025).

For the compound `OC[C@H]1O[C@@H](c2ccc(Cl)c(Cc3ccc(O[C@H]4CCOC4)cc3)c2)[C@H](O)[C@@H](O)[C@@H]1O` [empagliflozin, 1-chloro-4-(β-D-glucopyranos-1-yl)-2-[4-((S)-tetrahydrofuran-3-yloxy)-benzyl]-benzene], in series [1], the “risk of cardiovascular death” value was “reduced the risk” and the “risk of overall mortality” value is recorded as “reduced the risk”. Besides, in series [2], the heart rate result is “without clinically relevant changes”. In series [3], the arterial stiffness entry is given as “reduced arterial stiffness”, the direct vascular effects result is listed as “direct vascular effects” and the diuretic effect result is “shows a diuretic effect”.
